Marks after values point to notes of the source that are not given here.
Tests used:
[1] = Inhibition of linoleic acid lipid peroxidation (AAPH)
Text: Azo compounds, like AAPH, generating free radicals through spontaneous thermal decomposition are useful for in vitro studies of free radical production. Production of conjugated diene hydroperoxide by oxidation of sodium linoleate in an aqueous solution is monitored at 234 nm. This assay can be used to follow oxidative changes and to understand the contribution of each tested compound. […] It seems that the presence of moiety Ar (Scheme 1) is mainly correlated with the antioxidant result. The nature of the heteroatom O/S in Ar substituent in the 5-membered oxazolone ring (compounds 2c and 2e) influences the biological response. The replacement of the thienyl group in 2c by a furyl group (2e) leads to a 31% decrease of the antioxidant ability.
Each in vitro experiment was performed at least in triplicate and the standard deviation of absorbance was less than 10% of the mean. For the in vitro assays, a stock solution (1% DMSO in the appropriate buffer with the tested compound diluted under sonification) was prepared from which several dilutions were made with the appropriate buffer.
The AAPH-induced oxidation of linoleic acid measures the ability of an antioxidant to prevent oxidation of linoleic acid sodium salt induced by alkylperoxyl radicals, generated from the water soluble azo compound 2,2′-azobis(2-amidinopropane) dihydrochloride (AAPH). The assay was performed according to our previous publications. Trolox was used as reference compound.

mushroom tyrosinase = mushroom tyrosinase (Agaricus bisporus, UniProt C7FF04); experiment: Tyrosinase inhibition assay; assay type: biochemical; settings: L-Dopa substrate; for inhibition at 100 µM: read-out: ΤyrI% 100 μM (inhibition of mushroom tyrosinase)
Procedure: For the in vitro assays, a stock solution (1% DMSO in the appropriate buffer with the tested compound diluted under sonification) was prepared from which several dilutions were made with the appropriate buffer.

soybean lipoxygenase = molecular target: T1, soybean lipoxygenase (Glycine max, UniProt P08170); experiment: Soybean lipoxygenase inhibition study; assay type: biochemical; settings: for inhibition at 100 µM: read-out: LOX % inhibition 100 μM; for IC50: soybean lipoxygenase, sodium linoleate 0.1 mM, read-out: LOX IC50
T1 construct: purchased Sigma Chemical, Co. (St. Louis, MO, USA)
T1 sequence (P08170 1-839): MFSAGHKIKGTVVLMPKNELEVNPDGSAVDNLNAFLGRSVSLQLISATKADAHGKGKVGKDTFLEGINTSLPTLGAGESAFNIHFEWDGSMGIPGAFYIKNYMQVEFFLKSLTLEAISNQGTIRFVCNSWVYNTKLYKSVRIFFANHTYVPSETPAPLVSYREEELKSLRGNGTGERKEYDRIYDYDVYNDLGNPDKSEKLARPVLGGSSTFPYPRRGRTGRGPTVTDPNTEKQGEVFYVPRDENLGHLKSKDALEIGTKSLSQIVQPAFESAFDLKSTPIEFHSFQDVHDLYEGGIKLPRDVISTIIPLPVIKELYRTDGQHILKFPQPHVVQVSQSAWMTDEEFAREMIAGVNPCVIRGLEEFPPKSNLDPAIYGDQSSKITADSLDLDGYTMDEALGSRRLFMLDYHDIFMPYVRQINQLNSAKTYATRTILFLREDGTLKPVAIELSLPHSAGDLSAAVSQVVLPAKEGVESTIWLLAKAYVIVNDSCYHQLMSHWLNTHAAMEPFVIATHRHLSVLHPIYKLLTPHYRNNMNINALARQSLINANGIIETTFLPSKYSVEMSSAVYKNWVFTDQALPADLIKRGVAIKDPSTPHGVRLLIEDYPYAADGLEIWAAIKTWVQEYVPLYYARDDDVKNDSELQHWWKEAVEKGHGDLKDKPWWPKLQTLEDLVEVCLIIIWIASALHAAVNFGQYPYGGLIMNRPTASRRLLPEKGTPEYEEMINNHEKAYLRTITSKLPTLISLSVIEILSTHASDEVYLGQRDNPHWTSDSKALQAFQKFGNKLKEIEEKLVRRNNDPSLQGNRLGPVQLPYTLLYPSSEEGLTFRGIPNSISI
Procedure: For the in vitro assays, a stock solution (1% DMSO in the appropriate buffer with the tested compound diluted under sonification) was prepared from which several dilutions were made with the appropriate buffer. DMSO solution of the tested compound (stock solutions 10 mM) was incubated with sodium linoleate (0.1 mM) and 0.2 mL of soybean lipoxygenase solution (1/9 × 10^−4 w/v in saline) at room temperature. The test follows our previous published methods. […] Several concentrations were used to determine the IC50.

[2] = system: carrageenin-induced rat paw edema; experiment: Inhibition of the carrageenin-induced rat paw edema; assay type: in vivo, Fisher 344 rats; settings: 0.0057 mmol/kg body weight i.p., 3.5 h after carrageenin
Procedure: For the estimation of anti-inflammatory potential of the tested compounds the rat carrageenin induced paw edema assay was employed as a model for acute inflammation. Indomethacin, as a reference drug, and our compounds were administered intraperitoneally in order to ensure systemic response via fast bioavailability, while carrageenin’s intradermal administration, as inflammatory agent, aimed to local response. The development of the edema induced by carrageenin has been described as a biphasic event. The early phase of the inflammatory response, lasting 0.5–1.5 h, is chiefly mediated by histamine and serotonin release inducing hyperalgesia, swelling and redness, while the later phase, lasting 3–6 h, is sustained presumably by prostaglandin release. This model reliably predicts the anti-inflammatory efficacy of the NSAIDs during the second phase, since non-steroidal anti-inflammatory drugs (NSAIDs) present weak activity in the first phase. Therefore, using this protocol we could evaluate our compounds as potential anti-inflammatory agents, as a result of inhibition of prostaglandin amplification.
The animals (Fisher 344 rats), which have been bred in our laboratory, were housed under standard conditions and received a diet of commercial food pellets and water ad libitum during the maintenance but they were entirely fasted during the experiment period. Both sexes were used while females pregnant were excluded. Each group was composed of 6–15 animals. Our studies were in accordance with recognized guidelines on animal experimentation (guidelines for the care and use of laboratory animals published by the Greek Government 160/1991, based on EU regulations 86/609). […]
Edema was induced in the right hind paw of the rats by the intradermal injection of 0.1 mL 2% carrageenin in water we followed our previous published method. […] The change in paw weight was compared with that in control animals (treated with water) and expressed as a percent inhibition of the edema CPE % values. […]

Chain of mushroom tyrosinase (G1K3P4 entry or part of it): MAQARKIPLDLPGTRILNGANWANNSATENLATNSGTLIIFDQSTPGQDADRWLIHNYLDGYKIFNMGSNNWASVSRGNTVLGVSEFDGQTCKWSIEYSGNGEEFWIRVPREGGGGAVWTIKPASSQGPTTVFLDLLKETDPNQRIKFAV
Chain of mushroom tyrosinase (C7FF04 1-392): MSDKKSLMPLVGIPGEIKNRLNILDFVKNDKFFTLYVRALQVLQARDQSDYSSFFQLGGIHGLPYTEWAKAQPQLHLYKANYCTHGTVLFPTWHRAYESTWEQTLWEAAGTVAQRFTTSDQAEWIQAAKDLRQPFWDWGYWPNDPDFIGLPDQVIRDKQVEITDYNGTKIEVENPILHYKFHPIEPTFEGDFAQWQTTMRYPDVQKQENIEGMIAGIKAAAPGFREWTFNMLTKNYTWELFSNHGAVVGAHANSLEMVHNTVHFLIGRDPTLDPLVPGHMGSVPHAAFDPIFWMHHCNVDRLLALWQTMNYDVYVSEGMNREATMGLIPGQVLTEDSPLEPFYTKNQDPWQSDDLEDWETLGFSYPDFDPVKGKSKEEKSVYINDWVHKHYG

**Q.** For `O=C1OC(c2ccccc2)=N/C1=C\c1ccccc1` [Compound 2a, (Z)-4-Benzylidene-2-phenyloxazol-5(4H)-one], which “AAPH% 100 µM (anti-lipid peroxidation)” value [1] is on record?
**A.** 95%

**Q.** What about the “ΤyrI% 100 μM (inhibition of mushroom tyrosinase)” value (mushroom tyrosinase) of the same compound?
**A.** no

**Q.** And the “LOX % inhibition 100 μM” value (soybean lipoxygenase; 100 µM)?
**A.** no

**Q.** For `O=C1OC(c2ccccc2)=N/C1=C\c1ccc(OCc2ccc(Br)cc2)cc1` [Compound 2b, (Z)-4-(4-((4-Bromobenzyl)oxy)benzylidene)-2-phenyloxazol-5(4H)-one], which “AAPH% 100 µM (anti-lipid peroxidation)” value [1] is on record?
**A.** 79%

**Q.** And the “ΤyrI% 100 μM (inhibition of mushroom tyrosinase)” value (mushroom tyrosinase)?
**A.** no

**Q.** What about the melting point of the same compound?
**A.** 199 to 200 °C

**Q.** What about the “LOX % inhibition 100 μM” value (soybean lipoxygenase; 100 µM) of the same compound?
**A.** no

**Q.** Which results are given for `O=C1OC(c2ccccc2)=N/C1=C\c1cccs1` [Compound 2c, (Z)-2-Phenyl-4-(thiophen-2-ylmethylene)oxazol-5(4H)-one]?
**A.** AAPH% 100 µM (anti-lipid peroxidation) [1]: 91%; inhibition at 100 µM (mushroom tyrosinase): 16%; LOX % inhibition 100 μM (soybean lipoxygenase; 100 µM): no

**Q.** Which “AAPH% 100 µM (anti-lipid peroxidation)” value [1] does the source give for `O=C1OC(c2ccccc2)=N/C1=C\c1cccc2ccccc12` [Compound 2d, (Z)-4-(Naphthalen-1-ylmethylene)-2-phenyloxazol-5(4H)-one] here?
**A.** 81%

**Q.** And the inhibition at 100 µM (mushroom tyrosinase)?
**A.** 5%

**Q.** And the melting point?
**A.** 169 to 171 °C

**Q.** And the “LOX % inhibition 100 μM” value (soybean lipoxygenase; 100 μM)?
**A.** 49%

**Q.** What about the inhibition at 100 µM (soybean lipoxygenase; 100 µM) of the same compound?
**A.** < 50%

**Q.** What does the source list for `O=C1OC(c2ccccc2)=N/C1=C\c1ccco1` [Compound 2e, (Z)-4-(Furan-2-ylmethylene)-2-phenyloxazol-5(4H)-one]?
**A.** AAPH% 100 µM (anti-lipid peroxidation) [1]: 60%; inhibition at 100 µM (mushroom tyrosinase): 3%

**Q.** Which “AAPH% 100 µM (anti-lipid peroxidation)” value [1] does the source give for `O=C1OC(c2ccccc2)=N/C1=C\c1ccc(Oc2ccccc2)cc1` [Compound 2f, (Z)-4-(4-Phenoxybenzylidene)-2-phenyloxazol-5(4H)-one] here?
**A.** no

**Q.** What about the melting point of the same compound?
**A.** 169 °C

**Q.** And the “LOX % inhibition 100 μM” value (soybean lipoxygenase; 100 µM)?
**A.** no

**Q.** Which “AAPH% 100 µM (anti-lipid peroxidation)” value [1] does the source give for `O=C(N/C(=C\c1cccs1)C(=O)N1CCOCC1)c1ccccc1` [Compound 3c, (Z)-N-(3-morpholino-3-oxo-1-(thiophen-2-yl)prop-1-en-2-yl)benzamide] here?
**A.** 93%

**Q.** What about the inhibition at 100 µM (mushroom tyrosinase) of the same compound?
**A.** 7%

**Q.** And the melting point?
**A.** 184 to 186 °C

**Q.** What about the “LOX % inhibition 100 μM” value (soybean lipoxygenase; 100 μM) of the same compound?
**A.** 39%

**Q.** And the inhibition at 100 µM (soybean lipoxygenase; 100 µM)?
**A.** < 50%

**Q.** For `O=C(N/C(=C\c1cccc2ccccc12)C(=O)N1CCOCC1)c1ccccc1` [Compound 3d, (Z)-N-(3-morpholino-1-(naphthalen-1-yl)-3-oxoprop-1-en-2-yl)benzamide], which “AAPH% 100 µM (anti-lipid peroxidation)” value [1] is on record?
**A.** 91%

**Q.** And the melting point?
**A.** 135 to 137 °C

**Q.** What about the “LOX % inhibition 100 μM” value (soybean lipoxygenase; 100 μM) of the same compound?
**A.** 37%

**Q.** And the inhibition at 100 µM (soybean lipoxygenase; 100 µM)?
**A.** < 50%

**Q.** For `O=C(N/C(=C\c1ccc(OCc2ccc(Br)cc2)cc1)C(=O)N1CCN(C(=O)/C(=C/c2ccc(OCc3ccc(Br)cc3)cc2)NC(=O)c2ccccc2)CC1)c1ccccc1` [Compound 4b, N,N′-((1Z,1′Z)-piperazine-1,4-diylbis(1-(4-((4-bromobenzyl)oxy)phenyl)-3-oxoprop-1-ene-3,2-diyl))-bis-benzamide], which “AAPH% 100 µM (anti-lipid peroxidation)” value [1] is on record?
**A.** 99%

**Q.** And the inhibition at 100 µM (mushroom tyrosinase)?
**A.** 12%

**Q.** And the melting point?
**A.** 285 to 286 °C

**Q.** And the IC50 (soybean lipoxygenase)?
**A.** 85 µM

**Q.** With `O=C(N/C(=C\c1cccc2ccccc12)C(=O)N1CCN(C(=O)/C(=C/c2cccc3ccccc23)NC(=O)c2ccccc2)CC1)c1ccccc1` [Compound 4d, N,N′-((1Z,1′Z)-piperazine-1,4-diylbis(1-(naphthalen-1-yl)-3-oxoprop-1-ene-3,2-diyl))bisbenzamide] as the compound, how does the “AAPH% 100 µM (anti-lipid peroxidation)” value [1] read?
**A.** 90%

**Q.** What about the inhibition at 100 µM (mushroom tyrosinase) of the same compound?
**A.** 28%

**Q.** And the melting point?
**A.** 282 to 284 °C

**Q.** And the IC50 (soybean lipoxygenase)?
**A.** 65 µM

**Q.** What does the source list for `O=C(N/C(=C\c1ccco1)C(=O)N1CCN(C(=O)/C(=C/c2ccco2)NC(=O)c2ccccc2)CC1)c1ccccc1` [Compound 4e, N,N′-((1Z,1′Z)-piperazine-1,4-diylbis(1-(furan-2-yl)-3-oxoprop-1-ene-3,2-diyl))bisbenzamide]?
**A.** AAPH% 100 µM (anti-lipid peroxidation) [1]: 83%; inhibition at 100 µM (mushroom tyrosinase): 17%; melting point: 293 to 295 °C; IC50 (soybean lipoxygenase): 88 µM

**Q.** For `O=C(N/C(=C\c1cccs1)C(=O)N1CCCCC1)c1ccccc1` [Compound 5c, (Z)-N-(3-Oxo-3-(piperidin-1-yl)-1-(thiophen-2-yl)prop-1-en-2-yl)benzamide], which “AAPH% 100 µM (anti-lipid peroxidation)” value [1] is on record?
**A.** 72%

**Q.** What about the inhibition at 100 µM (mushroom tyrosinase) of the same compound?
**A.** 13%

**Q.** What about the melting point of the same compound?
**A.** 181 to 182 °C

**Q.** And the “LOX % inhibition 100 μM” value (soybean lipoxygenase; 100 μM)?
**A.** 41%

**Q.** What about the inhibition at 100 µM (soybean lipoxygenase; 100 µM) of the same compound?
**A.** < 50%

**Q.** What does the source list for `CCOC(=O)/C(=C/c1cccs1)NC(=O)c1ccccc1` [Compound 6c, (Z)-Ethyl 2-benzamido-3-(thiophen-2-yl)acrylate]?
**A.** AAPH% 100 µM (anti-lipid peroxidation) [1]: 59%; inhibition at 100 µM (mushroom tyrosinase): 5%; melting point: 156 to 159 °C; LOX % inhibition 100 μM (soybean lipoxygenase; 100 μM): 36%; inhibition at 100 µM (soybean lipoxygenase; 100 µM): < 50%

**Q.** With `COc1ccc2c(c1)c(CC(=O)O)c(C)n2C(=O)c1ccc(Cl)cc1` [Indomethacin, reference compound] as the compound, how does the “CPE (%) inhibition of carrageenin-induced rat paw edema” value [2] read?
**A.** 58 ** %

**Q.** For `Cc1c(C)c2c(c(C)c1O)CCC(C)(C(=O)O)O2` (centres unmarked) [Trolox, reference compound], which “AAPH% 100 µM (anti-lipid peroxidation)” value [1] is on record?
**A.** 93%

Reference: publication PMC7397336, “5-(4H)-Oxazolones and Their Benzamides as Potential Bioactive Small Molecules” (Molecules, 2020)
